Literature values as cited in US20210360928A1, “ANTIMICROBIAL/ANTIVIRAL NONWOVEN AND APPLICATIONS OF THE SAME” (priority 2020, published 2021).

In the case of [Cl][Ag] [silver chloride], the solubility in water is given as “unusually insoluble in water”.
